Positions of bridges follow the written chain, without caps; N, C: chain ends. Primed or numbered codes have the meaning given here. Chains are numbered I, II in the order given. No end group written: not given here. PEG12′ = not defined here

The test system of one experiment is human PC-3 tumor cells. The experiment can be described thus: Mouse PC-3 xenograft model of prostate cancer. The experiment is classed as in vivo. As to conditions: 5 mg/kg daily intraperitoneal. As for the experimental part:
Male BALB/c nude mice, 6-7 weeks of age, 20±2 g were inoculated subcutaneously in the right lower flank with a single volume of 0.1 ml of cell suspension containing about 1×10^7 human PC-3 tumor cells. Animals were weighed and randomized into treatment groups when the mean tumor size was around 130 mm^3. Groups of 10 animals received daily injections of test article (5 mg/kg) by intraperitoneal administration. Tumor size was measured twice per week in 2 dimensions using a calipers and tumor volume calculated by standard methods. The study was concluded on day 21 post initial-dosing (day 0).

Experiment [1] relates to Rat primary cortical neurons. The experiment can be described thus: Neuroprotection against Aβ (1-42) toxicity in cultured neurons. The experiment is classed as cell-based. The following applies: 24 hours.
Protocol: Rat primary cortical neurons were collected and cultured by methods well known in the art (Singer et al., 1999 and Callizot et al., 2013). The cells were seeded at a density of 25,000 per well in 96-well plates precoated with poly-L-lysine and cultured at 37° C. in an air (95%)-CO2 (5%) incubator. The medium was changed every 2 days. The cortical neurons were treated after 11 days of culture. The A13(1-42) was prepared using the procedure described by Callizot et al., 2013 to ensure monomeric peptide. Compounds and the positive control, BDNF (50 ng/ml), were dissolved in culture medium and then pre-incubated with primary cortical neurons for 1 hour before addition of A13(1-42) (20 μM). After 24 hours of treatment, the cell culture supernatant was removed and the cortical neurons were fixed by a cold solution of ethanol (95%) and acetic acid (5%) for 5 min at −20° C. After permeabilization with 0.1% of saponin, cells were incubated for 2 hours with mouse monoclonal antibody anti-microtubule-associated-protein 2 (MAP-2) at a dilution of 1/400 in PBS containing 1% fetal calf serum and 0.1% of saponin to stain cell bodies and neurites.
This antibody was detected with Alexa Fluor 488 goat anti-mouse IgG at the dilution 1/400 in PBS containing 1% FCS, 0.1% saponin, for 1 hour at room temperature. For each condition, images were obtained using ImageXpress (Molecular Devices) with 20× magnification. The total number of cells and extent of neurite network was determined using Custom Module Editor (Molecular Devices).
For a further experiment, the system named is human lung fibroblasts. The experiment is described as follows: Fibroblast-to-myofibroblast transition assay, alpha smooth muscle actin expression. The experiment is classed as cell-based. As to conditions: 1.25 ng/ml TGF-β1, 72 hours. An excerpt: The effect of the peptides on fibrosis can be assessed in vitro using a fibroblast-to-myofibroblast transition (FMT) assay and monitoring alpha smooth muscle actin ([…]SMA) produced by cultured cells such as healthy primary human lung fibroblast cells. Assay performed by Charles River Discovery Research Services UK Limited (Essex, UK). Transforming growth factor beta-1 (TGF-β1) stimulated alpha smooth muscle actin (αSMA) expression in human lung fibroblasts derived from three healthy donors was used to assess anti-fibrotic activity. Peptides were prepared as 10 mM stock in DMSO and tested in eight (8)-step concentration response curves using 0.5 Log M dilution steps with 10 μM as highest concentration (0.1% DMSO final). Transforming Growth Factor beta (TGF-β1) was used as a potent inducer of FMT as measured by increased αSMA expression. Isolated lung fibroblasts were seeded in 96-well or 384-well PureCol coated plates. Five days post-seeding, medium was refreshed, and peptides, reference compounds, and controls are added to the cells. After one hour, 1.25 ng/ml TGF-β1 was added to induce FMT. Expression of αSMA was measured 72 hours later by immunostaining, assessed by high content imaging on an IN Cell Analyzer 2200 (GE Healthcare) and quantified using an in-house developed algorithm with the IN Cell developer software (GE Healthcare). The output of the algorithm represents the staining intensity multiplied by the stained area (DxA levels). Co-staining of cell nuclei with DAPI was performed to quantify cell number, a measure of potential toxicity. The αSMA expression levels observed using 0.1% DMSO (negative control) were used to calculate percentage inhibition of αSMA by each peptide.

In experiment [2] the test system is RENCA cells (renal adenocarcinoma cell line). The experiment can be described thus: Tumor growth in RENCA syngeneic mouse model. In kind it is in vivo. The following applies: 10 mg/kg daily intraperitoneal, female BALB/c mice, 10 per group. How it is done:
The effect of the peptides on tumor growth can be assessed by monitoring tumor volume in syngeneic mouse cancer models such as RENCA, a mouse tumor model using a renal adenocarcinoma cell line. RENCA cells were grown in culture. On Day 0, 1.0×10^6 cells in 100 μl PBS were implanted into the mammary fat pad of female BALB/c mice. […] Test peptides were administered daily at a dose of 10 mg/kg by intraperitoneal administration. Primary tumor volumes were determined by caliper measurements twice a week. The growth rate of each tumor was calculated as the percent of the mean tumor growth of tumors observed in the control vehicle-treated group, as determined on Day 20 of the study.

Experiment [3] relates to bleomycin-induced lung fibrosis in male C57BL/6 mice. The experiment can be described thus: Therapeutic mouse model of idiopathic pulmonary fibrosis (bleomycin). In kind it is in vivo. The following applies: peptide 5 mg/kg/day intraperitoneal, nintedanib 60 mg/kg/day PO. An excerpt:
The effect of the peptides on the progression of established lung fibrosis can be assessed by monitoring lung fibrosis, lung weight, inflammatory cells in bronchoalveolar lavage fluid (BALF), soluble collagen in BALF, and body weight change in a therapeutic mouse model of idiopathic pulmonary fibrosis. Lung fibrosis was induced in lungs of male C57BL/6 mice between the ages of 6 to 8 weeks by nasophayngeal administration of bleomycin (1.5 U/kg using bleomycin clinical formulation diluted in PBS). A control group of animals were administered saline by the nasopharyngeal route (no-bleomycin control group). After one week, bleomycin-treated animals were randomized to treatment groups (N=10 per group) by body weight and treated daily with vehicle control, nintedanib positive control (60 mg/kg/day PO) or peptide (5 mg/kg/day by intraperitoneal injection). After 14 days of treatment (Day 21), lungs were removed and weighed. The post-caval lobe was separated and snap frozen. The lungs were flushed with Hanks Buffer and bronchoalveolar lavage fluid (BALF) was harvested from each animal. Total BALF leukocyte were counted. Slides were prepared from the remaining BALF leukocytes, fixed and stained with May Geimsa stain and the differential counts were recorded manually. BALF was evaluated for soluble collagen using a Sircol assay. Lungs were fixed in 10% neutral buffered formalin (NBF) for histopathological analysis. Fibrosis was assessed by histopathological analysis of H&E stained mouse lungs using an Ashcroft scoring system.

For experiment [4], the system named is DSS-induced colitis in female C57BL/6NTac mice. The experiment is described as follows: DSS-induced colitis mouse model of inflammatory bowel disease. The experiment is classed as in vivo. The following applies: 3% DSS 8 days; peptides 10 mg/kg/day intraperitoneal; CsA 80 mg/kg/day oral; AUC over 8 days.
Protocol: The effect of the peptides on inflammatory disease can be assessed by monitoring fecal blood, stool consistency, and body weight loss in a DSS-induced colitis mouse model. Colitis was induced in female C57BL/6NTac mice (9-11 weeks old) by continuous ad libitum oral administration of dextran sodium sulfate (DSS) 3% in sterile drinking water for 8 days. Control (No DSS) mice received sterile water instead of DSS solution. Peptides were administered intraperitoneally once daily at 10 mg/kg/day for 8 days in combination with oral DSS. […] Daily assessments included body weight loss score, fecal blood score, stool consistency score, and composite disease activity index (DAI) score, based on the first three parameters combined. Scores recorded on each day over 8 days were used to calculate area under the curve (AUC) values for each endpoint in individual animals.

For the substance RVIRMCLGVGLLGDLAG [SEQ ID NO: 3], the “Mean Tumor Volume” value in the experiment with human PC-3 tumor cells (Time 0 Days, N = 10) came out at 131 mm^3; with human PC-3 tumor cells (Time 4 Days), 136 mm^3; in the experiment on human PC-3 tumor cells (Time 7 Days), 203 mm^3; with human PC-3 tumor cells (Time 11 Days), 270 mm^3; in the experiment with human PC-3 tumor cells (Time 14 Days), 400 mm^3; in the experiment with human PC-3 tumor cells (Time 18 Days) it was 596 mm^3. Moreover, the “Mean Tumor Volume” value with human PC-3 tumor cells (Time 22 Days) was 806 mm^3. Moreover, the “Percent Protection of Neuronal Network” value in experiment [1] (Aβ (1-42) 20 μM + peptide 100 nM) stood at 80%; in experiment [1] (Aβ (1-42) 20 μM + peptide 10 uM), 81%.

“RVIRMCLGVGLLGDLAGK{PEG12} (chain 1 RVIRMCLGVGLLGDLAGK(PEG12′); chain 2 RVIRMCLGVGLLGDLAGK(PEG12′); disulfide I:6-II:6) [SEQ ID NO: 28]”: the “Mean Percent Inhibition of alpha-SMA Expression” value with human lung fibroblasts (peptide 0.00316 μM) is listed as 6.25%; in the experiment on human lung fibroblasts (peptide 0.01 μM) it was 1.25%; with human lung fibroblasts (peptide 0.0316 μM), −5.63%; in the experiment with human lung fibroblasts (peptide 0.1 μM), −5.63%; in the experiment with human lung fibroblasts (peptide 0.316 μM), 4.06%; in the experiment on human lung fibroblasts (peptide 1 μM), 28.1%. In addition, the “Mean Percent Inhibition of alpha-SMA Expression” value came out at 81.6% in the experiment with human lung fibroblasts (peptide 3.16 μM) and 88.1% with human lung fibroblasts (peptide 10 μM). For the same substance, the “Mean (SEM) Percent of Control Group Tumor Growth at Day 20” value in experiment [2] is listed as 57.3 (14.4) Percent. Moreover, the “Mean (SEM) Leukocyte Count in BALF (Percent of Bleomycin Control)” value in experiment [3] (Day 21, 14 days of treatment) is reported as 72.2 (5.96) Percent. Also, in experiment [3] (Day 21, 14 days of treatment), the “Mean (SEM) Lung Weight (Percent of Bleomycin Control)” value is recorded as 73.8 (3.13) Percent. In addition, the “Mean (SEM) Percent Body Weight Change from Baseline” value in experiment [3] (Day 21, 14 days of treatment) is given as 2.71 (1.48) Percent. In addition, the “Mean (SEM) Collagen Content in BALF (Percent of Bleomycin Control)” value in experiment [3] (Sircol assay, Day 21) is 49.6 (6.48) Percent. Moreover, the “Mean (SEM) Ashcroft Score (Percent of Bleomycin Control)” value in experiment [3] (histopathology, Day 21) is listed as 80.73 (7.24) Percent. In addition, the “Mean (SEM) Body Weight Loss Score AUC” value in experiment [4] is given as 1.70 (0.63). Further, in experiment [4], the “Mean (SEM) Composite Disease Activity Index (DAI) Score AUC” value is 16.6 (1.25). Further, in experiment [4], the “Mean (SEM) Fecal Blood Score AUC” value is reported as 10.3 (0.82). Also, the “Mean (SEM) Stool Consistency Score AUC” value in experiment [4] is 4.60 (0.74).

(Values after patent publication US20220226484A1, “THERAPEUTIC PEPTIDES” (COHBAR, INC., priority 2019, published 2022).)
